Reference: ChEMBL document CHEMBL4354870, “GSK2818713, a Novel Biphenylene Scaffold-Based Hepatitis C NS5A Replication Complex Inhibitor with Broad Genotype Coverage” (J Med Chem, 2020)
Calls of active or inactive are those of the source. The calls are words filed in the database; no cut-off is given here.

Assays:
[1] = target: T1, Nonstructural protein 5A (Hepatitis C virus) (UniProt Q5L478); assay: Inhibition of HCV NS5A infected in HuH-Lcu-Neo cells assessed as reduction in viral replication in presence of NM107 incubated for 48 hrs by luciferase reporter gene assay; format: cell-based; details: Hepacivirus hominis
T1 sequence (whole entry): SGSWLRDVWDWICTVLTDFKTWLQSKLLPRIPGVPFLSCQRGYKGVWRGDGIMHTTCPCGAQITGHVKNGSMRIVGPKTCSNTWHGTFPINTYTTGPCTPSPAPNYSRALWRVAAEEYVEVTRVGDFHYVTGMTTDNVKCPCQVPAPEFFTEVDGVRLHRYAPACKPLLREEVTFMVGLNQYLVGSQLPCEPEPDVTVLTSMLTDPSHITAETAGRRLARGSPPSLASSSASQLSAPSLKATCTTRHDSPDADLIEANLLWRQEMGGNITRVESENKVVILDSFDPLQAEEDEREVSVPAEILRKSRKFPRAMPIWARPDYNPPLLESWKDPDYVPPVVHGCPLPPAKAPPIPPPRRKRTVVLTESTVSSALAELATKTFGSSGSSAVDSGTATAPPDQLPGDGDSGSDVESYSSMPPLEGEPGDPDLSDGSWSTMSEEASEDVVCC

[2] = target: T1, Nonstructural protein 5A (Hepatitis C virus); assay: Potency index, ratio of EC50 of DCV to EC50 of compound for inhibition of patient-derived HCV genotype 3a NS5A infected in HuH-Lcu-Neo cells assessed as reduction in viral replication incubated for 48 hrs by luciferase reporter gene assay; format: cell-based; details: Hepatitis C virus subtype 3a
[3] = target: T1, Nonstructural protein 5A (Hepatitis C virus); assay: Inhibition of HCV NS5A infected in HuH-Lcu-Neo cells assessed as reduction in viral replication in presence of ribavirin incubated for 48 hrs by luciferase reporter gene assay; format: cell-based; details: Hepacivirus hominis
[4] = target: T1, Nonstructural protein 5A (Hepatitis C virus); assay: Inhibition of HCV genotype 2a con NS5A infected in HuH-Lcu-Neo cells assessed as fold reduction in virus RNA level at 10 times of EC90 incubated for 21 days by luciferase reporter gene assay; format: cell-based; details: Hepatitis C virus subtype 2a
[5] = target: T1, Nonstructural protein 5A (Hepatitis C virus); assay: Potency index, ratio of EC50 of DCV to EC50 of compound for inhibition of HCV genotype 2a con NS5A infected in HuH-Lcu-Neo cells assessed as reduction in viral replication incubated for 48 hrs by luciferase reporter gene assay; format: cell-based; details: Hepatitis C virus subtype 2a
[6] = target: T1, Nonstructural protein 5A (Hepatitis C virus); assay: Inhibition of HCV genotype 3a con NS5A infected in HuH-Lcu-Neo cells assessed as fold reduction in virus RNA level at 10 times of EC90 incubated for 21 days by luciferase reporter gene assay; format: cell-based; details: Hepatitis C virus subtype 3a
[7] = target: T1, Nonstructural protein 5A (Hepatitis C virus); assay: Potency index, ratio of EC50 of DCV to EC50 of compound for inhibition of patient-derived HCV genotype 2a NS5A infected in HuH-Lcu-Neo cells assessed as reduction in viral replication incubated for 48 hrs by luciferase reporter gene assay; format: cell-based; details: Hepatitis C virus subtype 2a
[8] = target: T1, Nonstructural protein 5A (Hepatitis C virus); assay: Inhibition of HCV NS5A infected in HuH-Lcu-Neo cells assessed as reduction in viral replication in presence of BILN2061 incubated for 48 hrs by luciferase reporter gene assay; format: cell-based; details: Hepacivirus hominis
[9] = target: T1, Nonstructural protein 5A (Hepatitis C virus); assay: Inhibition of HCV NS5A infected in HuH-Lcu-Neo cells assessed as reduction in viral replication in presence of NNI incubated for 48 hrs by luciferase reporter gene assay; format: cell-based; details: Hepacivirus hominis
[10] = target: T1, Nonstructural protein 5A (Hepatitis C virus); assay: Potency index, ratio of EC50 of DCV to EC50 of compound for inhibition of HCV genotype 3a con NS5A infected in HuH-Lcu-Neo cells assessed as reduction in viral replication incubated for 48 hrs by luciferase reporter gene assay; format: cell-based; details: Hepatitis C virus subtype 3a
[11] = target: T1, Nonstructural protein 5A (Hepatitis C virus); assay: Inhibition of HCV genotype 1b NS5A infected in HuH-Lcu-Neo cells assessed as log reduction in virus RNA level at 10 times of EC90 incubated for 21 days by luciferase reporter gene assay; format: cell-based; details: Hepatitis C virus subtype 1b
[12] = target: T1, Nonstructural protein 5A (Hepatitis C virus); assay: Inhibition of HCV genotype 1a NS5A infected in HuH-Lcu-Neo cells assessed as log reduction in virus RNA level at 10 times of EC90 incubated for 21 days by luciferase reporter gene assay; format: cell-based; details: Hepatitis C virus subtype 1a
[13] = AUC (0 to infinity) in CD1 mouse at 1 mg/kg, iv by LC-MS/MS analysis; format: ADME, organism-based; parameters: dose 1 mg/kg, time infinity, route intravenous; details: in vivo
[14] = AUC (0 to infinity) in Beagle dog at 1 mg/kg, iv by LC-MS/MS analysis; format: ADME, organism-based, Canis lupus familiaris; parameters: dose 1 mg/kg, route intravenous, time infinity; details: in vivo
[15] = Clearance in Beagle dog at 1 mg/kg, iv by LC-MS/MS analysis; format: ADME, organism-based, Canis lupus familiaris; details: in vivo
[16] = Cmax in CD1 mouse at 5 mg/kg, po by LC-MS/MS analysis; format: ADME, organism-based; parameters: dose 5 mg/kg, route oral; details: in vivo
[17] = Oral availability in Han Wistar rat at 5 mg/kg by LC-MS/MS analysis; format: ADME, organism-based; details: in vivo
[18] = Half life in CD1 mouse at 5 mg/kg, po by LC-MS/MS analysis; format: ADME, organism-based; details: in vivo
[19] = AUC (0 to t) in Han Wistar rat at 5 mg/kg, po by LC-MS/MS analysis; format: ADME, organism-based; details: in vivo
[20] = AUC (0 to infinity) in Beagle dog at 1 mg/kg, po by LC-MS/MS analysis; format: ADME, organism-based, Canis lupus familiaris; parameters: dose 1 mg/kg, route oral, time infinity; details: in vivo
[21] = AUC (0 to infinity) in CD1 mouse at 5 mg/kg, po by LC-MS/MS analysis; format: ADME, organism-based; parameters: dose 5 mg/kg, route oral, time infinity; details: in vivo
[22] = Half life in Han Wistar rat at 5 mg/kg, po by LC-MS/MS analysis; format: ADME, organism-based; details: in vivo
[23] = AUC (0 to t) in Beagle dog at 1 mg/kg, iv by LC-MS/MS analysis; format: ADME, organism-based, Canis lupus familiaris; details: in vivo
[24] = Tmax in CD1 mouse at 5 mg/kg, po by LC-MS/MS analysis; format: ADME, organism-based; details: in vivo
[25] = AUC (0 to t) in CD1 mouse at 5 mg/kg, po by LC-MS/MS analysis; format: ADME, organism-based; details: in vivo
[26] = Clearance in Han Wistar rat at 1 mg/kg, iv by LC-MS/MS analysis; format: ADME, organism-based; details: in vivo
[27] = Half life in CD1 mouse at 1 mg/kg, iv by LC-MS/MS analysis; format: ADME, organism-based; details: in vivo
[28] = Oral bioavailability in CD1 mouse at 5 mg/kg by LC-MS/MS analysis; format: ADME, organism-based; details: in vivo
[29] = Oral bioavailability in Beagle dog at 1 mg/kg by LC-MS/MS analysis; format: ADME, organism-based, Canis lupus familiaris; details: in vivo
[30] = Cmax in Beagle dog at 1 mg/kg, po by LC-MS/MS analysis; format: ADME, organism-based, Canis lupus familiaris; parameters: dose 1 mg/kg, route oral; details: in vivo
[31] = Half life in Beagle dog at 1 mg/kg, po by LC-MS/MS analysis; format: ADME, organism-based, Canis lupus familiaris; details: in vivo
[32] = AUC (0 to t) in CD1 mouse at 1 mg/kg, iv by LC-MS/MS analysis; format: ADME, organism-based; details: in vivo
[33] = AUC (0 to t) in Beagle dog at 1 mg/kg, po by LC-MS/MS analysis; format: ADME, organism-based, Canis lupus familiaris; details: in vivo
[34] = Volume of distribution at steady state in Han Wistar rat at 1 mg/kg, iv by LC-MS/MS analysis; format: ADME, organism-based; details: in vivo, read-out: Vdss
[35] = AUC (0 to t) in Han Wistar rat at 1 mg/kg, iv by LC-MS/MS analysis; format: ADME, organism-based; details: in vivo
[36] = AUC (0 to infinity) in Han Wistar rat at 5 mg/kg, po by LC-MS/MS analysis; format: ADME, organism-based; parameters: dose 5 mg/kg, time infinity, route oral; details: in vivo
[37] = Half life in Han Wistar rat at 1 mg/kg, iv by LC-MS/MS analysis; format: ADME, organism-based; details: in vivo
[38] = Half life in Beagle dog at 1 mg/kg, iv by LC-MS/MS analysis; format: ADME, organism-based, Canis lupus familiaris; details: in vivo
[39] = Tmax in Han Wistar rat at 5 mg/kg, po by LC-MS/MS analysis; format: ADME, organism-based; details: in vivo
[40] = Tmax in Beagle dog at 1 mg/kg, po by LC-MS/MS analysis; format: ADME, organism-based, Canis lupus familiaris; details: in vivo
[41] = Volume of distribution at steady state in CD1 mouse at 1 mg/kg, iv by LC-MS/MS analysis; format: ADME, organism-based; details: in vivo, read-out: Vdss
[42] = Volume of distribution at steady state in Beagle dog at 1 mg/kg, iv by LC-MS/MS analysis; format: ADME, organism-based, Canis lupus familiaris; details: in vivo, read-out: Vdss
[43] = Cmax in Han Wistar rat at 5 mg/kg, po by LC-MS/MS analysis; format: ADME, organism-based; parameters: dose 5 mg/kg, route oral; details: in vivo
[44] = AUC (0 to infinity) in Han Wistar rat at 1 mg/kg, iv by LC-MS/MS analysis; format: ADME, organism-based; parameters: dose 1 mg/kg, time infinity, route intravenous; details: in vivo
[45] = Clearance in CD1 mouse at 1 mg/kg, iv by LC-MS/MS analysis; format: ADME, organism-based; details: in vivo
[46] = target: T1, Nonstructural protein 5A (Hepatitis C virus); assay: Potency index, ratio of EC50 of cpd1 to EC50 of compound for inhibition of HCV genotype 2a con NS5A infected in HuH-Lcu-Neo cells assessed as reduction in viral replication incubated for 48 hrs by luciferase reporter gene assay; format: cell-based; details: Hepatitis C virus subtype 2a

COC(=O)N[C@H](C(=O)N1[C@H](c2ncc(-c3ccc4c(c3)-c3ccc(-c5cnc([C@@H]6C[C@@H]7CCC[C@@H]7N6C(=O)[C@@H](NC(=O)OC)[C@@H](C)OC)[nH]5)cc3-4)[nH]2)C[C@@H]2CCC[C@@H]21)[C@@H](C)OC [listing 1 of 2 here]
inhibition [1]: inactive
Ratio EC50 [2]: 37
inhibition [3]: inactive
fold change (FC) [4]: 1.8 to 3.1
Ratio EC50 [5]: 462
fold change (FC) [6]: 1.8 to 3.1
Ratio EC50 [7]: 74
inhibition [8]: inactive
inhibition [9]: inactive
Ratio EC50 [10]: 20
FC [11]: > 5
FC [12]: 1.8 to 3.1

COC(=O)N[C@H](C(=O)N1[C@H](c2ncc(-c3ccc4c(c3)-c3ccc(-c5cnc([C@@H]6C[C@@H]7CCC[C@@H]7N6C(=O)[C@@H](NC(=O)OC)[C@@H](C)OC)[nH]5)cc3-4)[nH]2)C[C@@H]2CCC[C@@H]21)[C@@H](C)OC [listing 2 of 2 here]
AUC(0-inf) [13]: 1100 ng·h/mL
AUC(0-inf) [14]: 3180 ng·h/mL
clearance [15]: 5.3 mL/min/kg
Cmax [16]: 506 ng/mL
bioavailability [17]: 9%
half-life [18]: 1.7 h
AUC(0-t) [19]: 178 ng·h/mL
AUC(0-inf) [20]: 633 ng·h/mL
AUC(0-inf) [21]: 2550 ng·h/mL
half-life [22]: 4.8 h
AUC(0-t) [23]: 3140 ng·h/mL
Tmax [24]: 2 h
AUC(0-t) [25]: 2490 ng·h/mL
clearance [26]: 33.8 mL/min/kg
half-life [27]: 1.7 h
bioavailability [28]: 46%
bioavailability [29]: 20%
Cmax [30]: 99 ng/mL
half-life [31]: 6 h
AUC(0-t) [32]: 1070 ng·h/mL
AUC(0-t) [33]: 593 ng·h/mL
Vd [34]: 1.3 L/kg
AUC(0-t) [35]: 498 ng·h/mL
AUC(0-inf) [36]: 216 ng·h/mL
half-life [37]: 1.5 h
half-life [38]: 5.2 h
Tmax [39]: 2 h
Tmax [40]: 4 h
Vd [41]: 1.3 L/kg
Vd [42]: 1 L/kg
Cmax [43]: 32 ng/mL
AUC(0-inf) [44]: 501 ng·h/mL
clearance [45]: 15.4 mL/min/kg

CN(C)[C@@H](C(=O)N1CCC[C@H]1c1ncc(-c2ccc3c(c2)-c2ccc(-c4cnc([C@@H]5CCCN5C(=O)[C@@H](c5ccccc5)N(C)C)[nH]4)cc2-3)[nH]1)c1ccccc1
Ratio EC50 [46]: 98

COC(=O)N[C@H](C(=O)N1[C@H](c2ncc(-c3ccc4c(c3)-c3ccc(-c5cnc([C@@H]6C[C@@H]7CCC[C@@H]7N6C(=O)[C@@H](NC(=O)OC)[C@@H](C)OC)[nH]5)cc3-4)[nH]2)C[C@@H]2CCC[C@@H]21)[C@@H](C)OC.Cl
bioavailability [17]: 41%
AUC(0-t) [19]: 1250 ng·h/mL
half-life [22]: 1.7 h
AUC(0-inf) [36]: 1260 ng·h/mL
Tmax [39]: 1.5 h
Cmax [43]: 258 ng/mL

COC(=O)N[C@H](C(=O)N1CCC[C@H]1c1ncc(-c2ccc3c(c2)-c2ccc(-c4cnc([C@@H]5CCCN5C(=O)[C@@H](c5ccccc5)N(C)C)[nH]4)cc2-3)[nH]1)C(C)C
Ratio EC50 [46]: 22
